The values that follow come from patent US20050209232A1, “Pyridazinone ureas as antagonists of alpha4 integrins” (priority 2004, published 2005).

Structures are written as SMILES.

The first assay deals with T1, α4β1 (Homo sapiens, UniProt P05556+P13612).
T1 construct: Ramos cells, (50 μL at 2×10^6/mL) labeled with 5 μM Calcein AM; endogenous in cells; host or cells: Ramos cells
T1 sequence (P05556 21-798, one chain of several): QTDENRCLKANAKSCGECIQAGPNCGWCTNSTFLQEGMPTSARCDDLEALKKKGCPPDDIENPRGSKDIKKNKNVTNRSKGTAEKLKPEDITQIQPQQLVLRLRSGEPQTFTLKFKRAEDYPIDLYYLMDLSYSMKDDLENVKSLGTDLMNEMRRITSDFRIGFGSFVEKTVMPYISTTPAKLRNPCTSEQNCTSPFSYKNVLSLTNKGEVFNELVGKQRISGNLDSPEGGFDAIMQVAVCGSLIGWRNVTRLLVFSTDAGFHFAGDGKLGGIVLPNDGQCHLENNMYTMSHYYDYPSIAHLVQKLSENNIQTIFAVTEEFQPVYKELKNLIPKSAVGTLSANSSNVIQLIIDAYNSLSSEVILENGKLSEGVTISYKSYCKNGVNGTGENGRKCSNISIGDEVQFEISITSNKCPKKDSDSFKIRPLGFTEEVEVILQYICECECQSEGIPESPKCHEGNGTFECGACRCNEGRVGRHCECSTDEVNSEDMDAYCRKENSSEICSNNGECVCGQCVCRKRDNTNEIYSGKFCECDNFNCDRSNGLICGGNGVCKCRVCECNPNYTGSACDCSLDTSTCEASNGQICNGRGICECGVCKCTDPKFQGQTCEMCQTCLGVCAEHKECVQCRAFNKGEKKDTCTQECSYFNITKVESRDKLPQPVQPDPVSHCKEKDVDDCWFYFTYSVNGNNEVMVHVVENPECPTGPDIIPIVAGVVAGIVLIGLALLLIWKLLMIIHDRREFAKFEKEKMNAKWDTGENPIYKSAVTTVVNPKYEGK
The assay can be described thus: Ramos Cell Adhesion Assay (α4β1 Mediated Adhesion/VCAM-1). In kind it is cell-based. As to conditions: Ramos cells adhering to recombinant hVCAM-1. The procedure:
Ramos Cell Adhesion Assay (α4β1 Mediated Adhesion/VCAM-1)
Immulon 96 well plates (Dynex) were coated with 100 μL recombinant hVCAM-1 at 4.0 μg/mL in 0.05 M NaCO3 buffer pH 9.0 overnight at 4° C. (R&D Systems). Plates were washed 2 times in PBS with 1% BSA and blocked for 1 h@room temperature in this buffer. PBS was removed and compounds to be tested (50 μL) were added at 2× concentration. Ramos cells, (50 μL at 2×10^6/mL) labeled with 5 μM Calcein AM (Molecular Probes) for 1 h at 37° C., were added to each well and allowed to adhere for 1 h at room temperature. Plates were washed 4 × in PBS+1% BSA and cells were lysed for 15 minutes in 100 μL of 1 M Tris pH 8.0 with 1% SDS. The plate was read at 485 nm excitation and 530 nm emission.
What is called IC50 is the point on the concentration scale where inhibition reaches its midpoint. Regarding `COc1cnn(C)c(=O)c1-c1ccc(C[C@H](NC(=O)N2CCC[C@H]2CN2CCCC2)C(=O)O)cc1` [Cpd 39], the IC50 is over 5000 nM.

Regarding `COc1cnn(C)c(=O)c1-c1ccc(C[C@H](NC(=O)N(CC(C)C)c2ccccc2)C(=O)O)cc1` [Cpd 41], the IC50 is over 5000 nM.

For the molecule `COc1cnn(C)c(=O)c1-c1ccc(C[C@H](NC(=O)N(c2ccccc2)C(C)C)C(=O)O)cc1` [Cpd 42], the IC50 is over 5000 nM.

Take `CCN(C(=O)N[C@@H](Cc1ccc(-c2c(OC)cnn(C)c2=O)cc1)C(=O)O)c1cc(O)ccc1C` [Cpd 44]: the IC50 is over 5000 nM.

Turning to `COc1cnn(C)c(=O)c1-c1ccc(C[C@H](NC(=O)N(Nc2ccccc2)c2ccccc2)C(=O)O)cc1` [Cpd 46], the IC50 is over 5000 nM.

For the molecule `COc1cnn(C)c(=O)c1-c1ccc(C[C@H](NC(=O)N(c2ccccc2)c2ccccc2)C(=O)O)cc1` [Cpd 47], the IC50 is over 5000 nM.

For the molecule `COc1cnn(C)c(=O)c1-c1ccc(C[C@H](NC(=O)N(Cc2ccccc2)c2ccccc2)C(=O)O)cc1` [Cpd 48], the IC50 was over 5000 nM.

In the case of `COc1cnn(C)c(=O)c1-c1ccc(C[C@H](NC(=O)N(C)c2ccccc2OC(F)(F)F)C(=O)O)cc1` [Cpd 51], the IC50 is over 5000 nM.

On to `COc1cnn(C)c(=O)c1-c1ccc(C[C@H](NC(=O)N(C)c2ccccc2C(F)(F)F)C(=O)O)cc1` [Cpd 52], for which the IC50 came to 4170 nM.

In the case of `COc1cnn(C)c(=O)c1-c1ccc(C[C@H](NC(=O)N(C)c2ccccn2)C(=O)O)cc1` [Cpd 54], the IC50 was over 5000 nM.

Another assay has as its target T2, human α4β7 integrin (Homo sapiens, UniProt P13612+P26010).
T2 construct: expressed in transfected cells; host or cells: K562 cells, stably transfected
T2 sequence (P13612 34-1032): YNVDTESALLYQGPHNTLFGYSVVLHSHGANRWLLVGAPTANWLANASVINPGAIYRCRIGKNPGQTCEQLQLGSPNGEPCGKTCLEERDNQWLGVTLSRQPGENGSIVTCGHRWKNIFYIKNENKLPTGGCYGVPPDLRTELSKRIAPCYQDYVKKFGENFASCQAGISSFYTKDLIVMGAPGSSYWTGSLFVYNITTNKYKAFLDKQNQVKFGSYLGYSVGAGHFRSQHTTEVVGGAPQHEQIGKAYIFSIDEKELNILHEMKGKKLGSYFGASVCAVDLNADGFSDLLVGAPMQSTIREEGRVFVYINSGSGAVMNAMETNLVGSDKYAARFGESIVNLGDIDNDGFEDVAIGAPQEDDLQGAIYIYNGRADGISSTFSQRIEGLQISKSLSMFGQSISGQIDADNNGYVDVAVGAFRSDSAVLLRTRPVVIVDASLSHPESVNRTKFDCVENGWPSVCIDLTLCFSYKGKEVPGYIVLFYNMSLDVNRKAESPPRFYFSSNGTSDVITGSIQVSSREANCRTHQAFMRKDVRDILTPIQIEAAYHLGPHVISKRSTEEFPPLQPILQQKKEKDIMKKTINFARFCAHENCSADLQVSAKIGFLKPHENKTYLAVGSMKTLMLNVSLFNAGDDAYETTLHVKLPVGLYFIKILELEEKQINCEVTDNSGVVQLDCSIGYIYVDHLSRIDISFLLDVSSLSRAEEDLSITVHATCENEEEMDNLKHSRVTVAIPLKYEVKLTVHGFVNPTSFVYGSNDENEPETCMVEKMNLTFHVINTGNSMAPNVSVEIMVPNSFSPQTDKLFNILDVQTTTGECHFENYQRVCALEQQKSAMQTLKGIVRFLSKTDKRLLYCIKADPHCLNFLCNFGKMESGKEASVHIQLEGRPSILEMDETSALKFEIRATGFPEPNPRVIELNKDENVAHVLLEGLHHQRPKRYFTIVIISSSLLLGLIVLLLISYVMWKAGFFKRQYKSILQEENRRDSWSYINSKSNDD
T2 sequence (P26010 20-798): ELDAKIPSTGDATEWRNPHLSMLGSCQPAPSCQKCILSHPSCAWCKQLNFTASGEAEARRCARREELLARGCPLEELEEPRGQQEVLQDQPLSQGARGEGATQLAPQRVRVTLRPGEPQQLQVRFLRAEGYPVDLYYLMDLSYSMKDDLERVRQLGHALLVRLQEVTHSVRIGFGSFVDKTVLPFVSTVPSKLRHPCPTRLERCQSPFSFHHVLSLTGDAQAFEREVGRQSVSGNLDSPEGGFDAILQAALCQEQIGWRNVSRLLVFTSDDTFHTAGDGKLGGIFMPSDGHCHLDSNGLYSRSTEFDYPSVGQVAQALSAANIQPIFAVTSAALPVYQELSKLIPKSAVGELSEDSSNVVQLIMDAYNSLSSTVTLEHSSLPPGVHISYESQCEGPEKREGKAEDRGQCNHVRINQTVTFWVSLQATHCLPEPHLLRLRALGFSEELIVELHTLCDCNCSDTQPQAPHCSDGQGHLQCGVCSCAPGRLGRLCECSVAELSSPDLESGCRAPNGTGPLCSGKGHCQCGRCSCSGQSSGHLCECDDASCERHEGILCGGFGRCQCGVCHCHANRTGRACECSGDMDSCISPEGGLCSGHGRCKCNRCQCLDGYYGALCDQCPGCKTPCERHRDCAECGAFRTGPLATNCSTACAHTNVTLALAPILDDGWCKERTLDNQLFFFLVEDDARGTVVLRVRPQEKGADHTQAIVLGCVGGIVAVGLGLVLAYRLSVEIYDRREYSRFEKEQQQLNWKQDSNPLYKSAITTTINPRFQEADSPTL
The assay can be described thus: α4β7-K562 Cell Adhesion Assay (α4β7 Mediated Adhesion/MAdCAM-1). The format is cell-based. The following applies: K562 cells expressing human α4β7 adhering to FLAG-hMAdCAM-1, 1 mM Mn2+. The procedure:
α4β7-K562 Cell Adhesion Assay (α4β7 Mediated Adhesion/MAdCAM-1)
M2 anti-FLAG Antibody Coated 96-well plates (Sigma) were coated for 1 hour at 4° C. with 2-8 μL/well recombinant FLAG-hMAdCAM-1 contained in 100 μL of Dulbecco's PBS, pH 7.4, with 1% BSA and 1 mM Mn^2+ (PBS-BSA-Mn). Plates were washed once with PBS-BSA-Mn. Buffer was removed and compounds to be tested (50 μL) were added at 2× concentration. Stably transfected K562 cells expressing human α4β7 integrin, (50 μL at 2×10^6/mL) that had been labeled with 100 μg/mL carboxymethyl fluorescein diacetate succinimidyl ester (CFDA-SE; Molecular Probes) for 15 min at 37° C. were added to each well and allowed to adhere for 1 h at room temperature. Plates were washed 4× in PBS-BSA-Mn and then cells were lysed for 2 min by addtion of 100 μL of PBS without Ca^2+, Mg^2+ supplemented with 0.1 M NaOH. The plate was read on a 96-well fluorescent plate reader at 485 nm excitation and 530 nm emission.
The molecule `COc1cnn(C)c(=O)c1-c1ccc(C[C@H](NC(=O)N2CCC[C@H]2CN2CCCC2)C(=O)O)cc1` [Cpd 39] displayed a half-maximal inhibitory concentration (IC50) of 871 nM.

Molecule `COc1cnn(C)c(=O)c1-c1ccc(C[C@H](NC(=O)N(CC(C)C)c2ccccc2)C(=O)O)cc1` [Cpd 41] gave an IC50 of 213 nM.

With `COc1cnn(C)c(=O)c1-c1ccc(C[C@H](NC(=O)N(c2ccccc2)C(C)C)C(=O)O)cc1` [Cpd 42], the IC50 was found to be 92 nM.

In turn, `CCN(C(=O)N[C@@H](Cc1ccc(-c2c(OC)cnn(C)c2=O)cc1)C(=O)O)c1cc(O)ccc1C` [Cpd 44] came in with an IC50 of 24 nM.

For the molecule `COc1cnn(C)c(=O)c1-c1ccc(C[C@H](NC(=O)N(Nc2ccccc2)c2ccccc2)C(=O)O)cc1` [Cpd 46], 575 nM corresponded to half-maximal inhibition (IC50).

As for `COc1cnn(C)c(=O)c1-c1ccc(C[C@H](NC(=O)N(c2ccccc2)c2ccccc2)C(=O)O)cc1` [Cpd 47], the midpoint of inhibition, the IC50, lay at 1450 nM.

As to `COc1cnn(C)c(=O)c1-c1ccc(C[C@H](NC(=O)N(Cc2ccccc2)c2ccccc2)C(=O)O)cc1` [Cpd 48], the IC50 stood at 67 nM.

For the molecule `COc1cnn(C)c(=O)c1-c1ccc(C[C@H](NC(=O)N(C)c2ccccc2OC(F)(F)F)C(=O)O)cc1` [Cpd 51], the IC50 amounted to 52 nM.

`COc1cnn(C)c(=O)c1-c1ccc(C[C@H](NC(=O)N(C)c2ccccc2C(F)(F)F)C(=O)O)cc1` [Cpd 52] displayed an IC50 of 37 nM.

For the molecule `COc1cnn(C)c(=O)c1-c1ccc(C[C@H](NC(=O)N(C)c2ccccn2)C(=O)O)cc1` [Cpd 54], the IC50 was found to be 880 nM.
